Measurements as given in BindingDB's records for doi:10.1016/j.bmcl.2004.04.065 (Eli Lilly, 2004).

Molecular target: TGF-beta receptor type-1
Test: Inhibitory activity against TGF-beta type I receptor

| Compound | IC50 |
| --- | --- |
| CCc1cccc(-c2nn3c(c2-c2ccnc4ccccc24)CCC3)n1 [4-[2-(6-Ethyl-pyridin-2-yl)-5,6-dihydro-4H-pyrrolo[1,2-b]pyrazol-3-yl]-quinoline] | 0.071 µM |
| Cc1cccc(-c2nn3c(c2-c2ccnc4cc(Cl)ccc24)CCC3)n1 [7-chloro-4-(2-(6-methylpyridin-2-yl)-5,6-dihydro-4H-pyrrolo[1,2-b]pyrazol-3-yl)quinoline] | 0.048 µM |
| Fc1ccc(-c2nn3c(c2-c2ccnc4ccccc24)CCC3)nc1 [4-[2-(5-Fluoro-pyridin-2-yl)-5,6-dihydro-4H-pyrrolo[1,2-b]pyrazol-3-yl]-quinoline] | 0.151 µM |
| CCSc1ccc2c(-c3c(-c4ccccn4)nn4c3CCC4)ccnc2c1 [7-Ethylsulfanyl-4-(2-pyridin-2-yl-5,6-dihydro-4H-pyrrolo[1,2-b]pyrazol-3-yl)-quinoline] | 0.11 µM |
| c1ccc(-c2nn3c(c2-c2ccnc4ccccc24)CCC3)nc1 [4-(2-(pyridin-2-yl)-5,6-dihydro-4H-pyrrolo[1,2-b]pyrazol-3-yl)quinoline] | 0.104 µM |
| CCS(=O)(=O)c1ccc2c(-c3c(-c4ccccn4)nn4c3CCC4)ccnc2c1 [7-Ethanesulfonyl-4-(2-pyridin-2-yl-5,6-dihydro-4H-pyrrolo[1,2-b]pyrazol-3-yl)-quinoline] | 9.29 µM |
